Values of other authors as cited in paper PMC10654029 (The Journal of Biological Chemistry, 2023).

What was measured:
[1] = tested on: Ba/F3 cells expressing METex14 F1200I; details: Ba/F3 cells expressing METex14 F1200I vs WT
[2] = tested on: Ba/F3 cells expressing METex14 L1195V; details: Ba/F3 cells expressing METex14 L1195V vs WT

## CN1CCC(COc2cnc(-c3cccc(Cn4nc(-c5cccc(C#N)c5)ccc4=O)c3)nc2)CC1 [tepotinib]
[1]
  decrease of cellular potency compared with the WT: ~15 fold
[2]
  decrease of cellular potency compared with the WT: ~15 fold
